{"source": "patent US20250268884A1", "about": "“Deuterated Domperidone for Treating Gastroparesis” (CinDome Pharma, Inc., priority 2022, published 2025)", "tested_on": "adults with idiopathic or diabetic gastroparesis", "assay": "PAGI-SYM questionnaire total and subscale scores, Phase 2a", "type": "in vivo, human", "details": "mean, Safety Population", "protocol": "Subjects were Evaluated as Follows: • Days −28 to −11: Screening procedures were performed. The ANMS GCSI-DD questionnaire was completed daily for at least 14 days prior to randomization (Day 1); • Days −10 to −3: The ANMS GCSI-DD questionnaire was completed daily. A GEBT was performed on a single day within this window, with breath samples obtained twice prior to consumption of a standardized, carbon-13 (^13C)-enriched meal and then at 45, 90, 120, 150, 180, and 240 minutes after meal consumption after an 8-hour fast. […] On Day 14 (±2 days), the PAGI-SYM and Clinical Grading Assessment questionnaires were completed prior to the final dose of study drug. • A GEBT was administered 30 minutes after study drug administration on Day 14 (±2 days). Breath samples were obtained twice prior to ^13C-enriched meal consumption and then at 45, 90, 120, 150, 180, and 240 minutes after meal consumption after an 8-hour fast. If a subject withdrew from the study prior to the Day 14 (±2 days) GEBT, attempts should have been made to perform a GEBT on the last day of study drug administration. Clinical Grading Assessment Scales were also performed.\nThe PAGI-SYM includes 6 subscales: heartburn/regurgitation, fullness/early satiety, nausea/vomiting, bloating, upper abdominal pain, and lower abdominal pain.", "data": [{"smiles": "[2H]c1c([2H])c([2H])c2c([nH]c(=O)n2CCCN2CCC(n3c(=O)[nH]c4cc(Cl)ccc43)CC2)c1[2H]", "note": "[Deudomperidone, 1-{3-[4-(5-chloro-2-oxo-2,3-dihydro-1H-1,3-benzodiazol-1-yl)piperidin-1yl]propyl}-2,3-dihydro(4,5,6,7-D4)-1H-1,3-benzodiazol-2-one]", "values": [{"measurement": "PAGI-SYM bloating subscale score, Baseline", "setting": "5 mg BID", "value": 3.67}, {"measurement": "PAGI-SYM bloating subscale score, Change from baseline to Day 14", "setting": "5 mg BID", "value": "−1.00"}, {"measurement": "PAGI-SYM bloating subscale score, Day 14", "setting": "5 mg BID", "value": 2.67}, {"measurement": "PAGI-SYM bloating subscale score, Percent change from baseline to Day 14", "setting": "5 mg BID", "value": "−30.16", "unit": "%"}, {"measurement": "PAGI-SYM fullness/early satiety subscale score, Baseline", "setting": "5 mg BID", "value": 3.89}, {"measurement": "PAGI-SYM fullness/early satiety subscale score, Change from baseline to Day 14", "setting": "5 mg BID", "value": "−1.53"}, {"measurement": "PAGI-SYM fullness/early satiety subscale score, Day 14", "setting": "5 mg BID", "value": 2.36}, {"measurement": "PAGI-SYM fullness/early satiety subscale score, Percent change from baseline to Day 14", "setting": "5 mg BID", "value": "−38.04", "unit": "%"}, {"measurement": "PAGI-SYM heartburn/regurgitation subscale score, Baseline", "setting": "5 mg BID", "value": 3.63}, {"measurement": "PAGI-SYM heartburn/regurgitation subscale score, Change from baseline to Day 14", "setting": "5 mg BID", "value": "−1.79"}, {"measurement": "PAGI-SYM heartburn/regurgitation subscale score, Day 14", "setting": "5 mg BID", "value": 1.84}, {"measurement": "PAGI-SYM heartburn/regurgitation subscale score, Percent change from baseline to Day 14", "setting": "5 mg BID", "value": "−50.23", "unit": "%"}, {"measurement": "PAGI-SYM lower abdominal pain subscale score, Baseline", "setting": "5 mg BID", "value": 3.11}, {"measurement": "PAGI-SYM lower abdominal pain subscale score, Change from baseline to Day 14", "setting": "5 mg BID", "value": "−1.67"}, {"measurement": "PAGI-SYM lower abdominal pain subscale score, Day 14", "setting": "5 mg BID", "value": 1.44}, {"measurement": "PAGI-SYM lower abdominal pain subscale score, Percent change from baseline to Day 14", "setting": "5 mg BID", "value": "−52.08", "unit": "%"}, {"measurement": "PAGI-SYM nausea/vomiting subscale score, Baseline", "setting": "5 mg BID", "value": 2.74}, {"measurement": "PAGI-SYM nausea/vomiting subscale score, Change from baseline to Day 14", "setting": "5 mg BID", "value": "−1.00"}, {"measurement": "PAGI-SYM nausea/vomiting subscale score, Day 14", "setting": "5 mg BID", "value": 1.74}, {"measurement": "PAGI-SYM nausea/vomiting subscale score, Percent change from baseline to Day 14", "setting": "5 mg BID", "value": "−39.58", "unit": "%"}, {"measurement": "PAGI-SYM total score, Baseline", "setting": "5 mg BID", "value": 3.37}, {"measurement": "PAGI-SYM total score, Change from baseline to Day 14", "setting": "5 mg BID", "value": "−1.35"}, {"measurement": "PAGI-SYM total score, Day 14", "setting": "5 mg BID", "value": 2.02}, {"measurement": "PAGI-SYM total score, Percent change from baseline to Day 14", "setting": "5 mg BID", "value": "−40.13", "unit": "%"}, {"measurement": "PAGI-SYM upper abdominal pain subscale score, Baseline", "setting": "5 mg BID", "value": 3.17}, {"measurement": "PAGI-SYM upper abdominal pain subscale score, Change from baseline to Day 14", "setting": "5 mg BID", "value": "−1.11"}, {"measurement": "PAGI-SYM upper abdominal pain subscale score, Day 14", "setting": "5 mg BID", "value": 2.06}, {"measurement": "PAGI-SYM upper abdominal pain subscale score, Percent change from baseline to Day 14", "setting": "5 mg BID", "value": "−37.28", "unit": "%"}, {"measurement": "PAGI-SYM bloating subscale score, Baseline", "setting": "10 mg BID", "value": 3.84}, {"measurement": "PAGI-SYM bloating subscale score, Change from baseline to Day 14", "setting": "10 mg BID", "value": "−1.17"}, {"measurement": "PAGI-SYM bloating subscale score, Day 14", "setting": "10 mg BID", "value": 2.65}, {"measurement": "PAGI-SYM bloating subscale score, Percent change from baseline to Day 14", "setting": "10 mg BID", "value": "−26.78", "unit": "%"}, {"measurement": "PAGI-SYM fullness/early satiety subscale score, Baseline", "setting": "10 mg BID", "value": 3.60}, {"measurement": "PAGI-SYM fullness/early satiety subscale score, Change from baseline to Day 14", "setting": "10 mg BID", "value": "−0.88"}, {"measurement": "PAGI-SYM fullness/early satiety subscale score, Day 14", "setting": "10 mg BID", "value": 2.71}, {"measurement": "PAGI-SYM fullness/early satiety subscale score, Percent change from baseline to Day 14", "setting": "10 mg BID", "value": "−24.08", "unit": "%"}, {"measurement": "PAGI-SYM heartburn/regurgitation subscale score, Baseline", "setting": "10 mg BID", "value": 2.67}, {"measurement": "PAGI-SYM heartburn/regurgitation subscale score, Change from baseline to Day 14", "setting": "10 mg BID", "value": "−1.07"}, {"measurement": "PAGI-SYM heartburn/regurgitation subscale score, Day 14", "setting": "10 mg BID", "value": 1.62}, {"measurement": "PAGI-SYM heartburn/regurgitation subscale score, Percent change from baseline to Day 14", "setting": "10 mg BID", "value": "−25.45", "unit": "%"}, {"measurement": "PAGI-SYM lower abdominal pain subscale score, Baseline", "setting": "10 mg BID", "value": 2.02}, {"measurement": "PAGI-SYM lower abdominal pain subscale score, Change from baseline to Day 14", "setting": "10 mg BID", "value": "−0.79"}, {"measurement": "PAGI-SYM lower abdominal pain subscale score, Day 14", "setting": "10 mg BID", "value": 1.25}, {"measurement": "PAGI-SYM lower abdominal pain subscale score, Percent change from baseline to Day 14", "setting": "10 mg BID", "value": "−38.38", "unit": "%"}, {"measurement": "PAGI-SYM nausea/vomiting subscale score, Baseline", "setting": "10 mg BID", "value": 2.75}, {"measurement": "PAGI-SYM nausea/vomiting subscale score, Change from baseline to Day 14", "setting": "10 mg BID", "value": "−0.93"}, {"measurement": "PAGI-SYM nausea/vomiting subscale score, Day 14", "setting": "10 mg BID", "value": 1.78}, {"measurement": "PAGI-SYM nausea/vomiting subscale score, Percent change from baseline to Day 14", "setting": "10 mg BID", "value": "−30.39", "unit": "%"}, {"measurement": "PAGI-SYM total score, Baseline", "setting": "10 mg BID", "value": 2.94}, {"measurement": "PAGI-SYM total score, Change from baseline to Day 14", "setting": "10 mg BID", "value": "−0.97"}, {"measurement": "PAGI-SYM total score, Day 14", "setting": "10 mg BID", "value": 1.97}, {"measurement": "PAGI-SYM total score, Percent change from baseline to Day 14", "setting": "10 mg BID", "value": "−31.18", "unit": "%"}, {"measurement": "PAGI-SYM upper abdominal pain subscale score, Baseline", "setting": "10 mg BID", "value": 2.74}, {"measurement": "PAGI-SYM upper abdominal pain subscale score, Change from baseline to Day 14", "setting": "10 mg BID", "value": "−0.97"}, {"measurement": "PAGI-SYM upper abdominal pain subscale score, Day 14", "setting": "10 mg BID", "value": 1.82}, {"measurement": "PAGI-SYM upper abdominal pain subscale score, Percent change from baseline to Day 14", "setting": "10 mg BID", "value": "−24.47", "unit": "%"}, {"measurement": "PAGI-SYM bloating subscale score, Baseline", "setting": "20 mg QD", "value": 3.57}, {"measurement": "PAGI-SYM bloating subscale score, Change from baseline to Day 14", "setting": "20 mg QD", "value": "−1.10"}, {"measurement": "PAGI-SYM bloating subscale score, Day 14", "setting": "20 mg QD", "value": 2.47}, {"measurement": "PAGI-SYM bloating subscale score, Percent change from baseline to Day 14", "setting": "20 mg QD", "value": "−36.38", "unit": "%"}, {"measurement": "PAGI-SYM fullness/early satiety subscale score, Baseline", "setting": "20 mg QD", "value": 3.42}]}]}
